Experiment [1] addresses gp41 MPER tetramer. Briefly: SPR, captured mAb, tetramer injected.
Experiment [2] deals with gp41 MPER tetramer. Put plainly: flow cytometry, gp41 MPER tetramer on the 15% 13H11 / 85% F39F cell mixture diluted tenfold with F39F cells (FIG. 4C); the value follows the mixing ratio. Background: In flow cytometry, cells or beads pass a laser one at a time.
The target in experiment [3] is gp41 MPER tetramer. Briefly: flow cytometry, gp41 MPER tetramer on a mixture of 15% 13H11 hybridoma cells and 85% F39F cells (FIG. 4B); the value follows the mixing ratio.
The target in experiment [4] is gp41 MPER tetramer. Put plainly: flow cytometry, gp41 MPER tetramer on the 13H11 / F39F cell mixture diluted a hundredfold in all with F39F cells (FIG. 4D); the value follows the mixing ratio.
For experiment [5], the system named is antibody coated beads (P3X63/Ag8, A32, 7B9, F39F, 7B2, 13H11, 2F5). To be noted: flow cytometry, all antibody coated beads tested. The method, then: (§1) Antibody-coated beads. Carboxyl-polystyrene beads (3.0-3.4 μm) (Spherotech, Inc., Lake Forest, Ill.) were resuspended in 0.01 M sodium acetate buffer (pH 5.0) and reacted (20° C.×1 hr) with 1-ethyl-3-(3-dimethylaminopropyl) carbodiimide hydrochloride (EDC) (Sigma-Aldrich, Co., St. Louis, Mo.) at a ratio of 3.1 mg beads to 1 mg EDC. Beads were washed with sodium acetate buffer, resuspended in a minimal volume before adding purified mAb in the same buffer (ratio of 16 mg beads to 1 mg mAb), incubated (20° C.×2 hrs), then washed with sodium acetate buffer. Beads were resuspended at 5% in PBS containing 1% bovine serum albumin and 0.02% sodium azide.
(§2) Use of antibody-coated beads and cell lines for tetramer quality control. Tetramer stocks were diluted to twice the desired final concentration in PBS containing 1% BSA. An equal volume of beads or cells at 5×10^5 up to 2×10^6 per sample were mixed with tetramer and incubated (4° C.×30 min). Beads or cells were washed with PBS+1% BSA before being fixed in 2% methanol-free formaldehyde (Polysciences, Inc, Warrington, Pa.) in PBS. Samples were stored at 4° C. prior to being analyzed by flow cytometry (BD LSR II, Becton Dickinson, Mountain View, Calif.). Data were analyzed using FlowJo (Tree Star, Ashland, Oreg.). For tetramer titration 40-80 ng tetramer per 10^6 cells/beads was serially diluted over 8-12 points. Optimal concentrations determined by this method were used for subsequent experiments. For cold competition experiments the incubation step was performed by staining with 10-fold excess unlabeled tetramer (4° C.×30 min) prior to the addition of APC-labeled tetramer. For cell dilution experiments, a mixture of mAb cell lines was made and then 1:10 serial dilutions of cells prepared. For cross competition experiments, mixtures of cells were prepared and then stained singly with anti-IgG reagents or tetramer, or the cells were doubly stained with both reagents either sequentially or concurrently.

The test system of experiment [6] is total naïve splenic BALB/c B cells. To be noted: APC-labeled tetramer. The method, then:
(§3) Cell isolation, serum collection, and PBMC isolations. Heparinized or non-heparanized blood was collected sub-mandibularly 10 days after immunizations. For preparation of peripheral blood lymphocytes for B cell tetramer analysis, PBMC were isolated from blood collected in heparinized tubes (0.2 ml) using Lympholyte M (Cederlane). For Luminex and ELISA assays, sera was isolated from non-heparanized blood and stored at −20° C. until use. Spleen, bone marrow (BM), and peritoneal cavity (PerC) cells were also collected. For most immunizations, tissues were harvested after the 4th boost, except for kinetic studies, in which tissues from mice were harvested after 1, 3 or 7 days after a single immunization. For BM preparations, femora and tibiae were removed, aspirated with tissue medium using 23 gauge needles, filtered with 70 μm cell strainers (BD labware), and RBC-depleted using Tris-buffered ammonium chloride lysis. For splenocyte preparation, spleens were harvested and dissociated into single-cell suspensions either by passage through 70 μm cell strainers in tissue medium or by using frosted glass slides, and blood erythrocytes were depleted with ammonium chloride lysis. For isolation of peritoneal cells, peritoneal cavities of sacrificed mice were lavaged by injection with 10 ml of PBS, followed by gentle massage of the abdomen, and withdrawal of the peritoneal exudates. BM, splenic, and peritoneal single cell suspensions were centrifuged at 1500 rpm for 5 min and resuspended in 5, 10, and 1 ml of tissue media, respectively, for cell counts and immunofluorescence staining. Cell counts were performed in duplicate on a Coulter ZI Dual Threshold Cell Counter (Coulter).
(§4) Antibodies and flow cytometry. Immunofluorescent staining of single cell suspensions (≧2×10^6) was conducted using pre-mixed combinations of fluorochrome-labeled antibodies and APC-conjugated B cell tetramers at empirically-determined optimal concentrations. All antibodies were from BD unless otherwise stated. […] Other reagents included biotinylated antibodies against dump channel markers: Thy1 (Ox7; Abcam), F4/80 (BM8; Abcam), CD11c (clone HL3), Gr-1 (clone RB6-8C5), TER-119, and NK-1.1 (clone PK136), secondary staining SA-Texas Red conjugate; v-amine live/dead violet dye (Molecular Probes), and Fc block (anti-CD16/32; clone 2.4G2).
(§5) Staining was conducted at 4° C. in several sequential steps in FACS staining buffer (1×PBS with 2% FCS, 0.1% NaN3), washing twice between steps. First, cells were incubated with v-amine live/dead dye for 15 min. Next, cells were stained with APC-labeled tetramers for 30 min. Where applicable, this was preceded by addition of cold tetramer at 10 fold molar excess for 1 h. Finally, cells were stained with Fc block for 30 min, followed by incubation with combinations of primary antibody cocktails for 30 min, and secondary staining with SA-Texas Red for 30 min.
(§6) Data were acquired using an LSRII flow cytometer and Cell Quest software (BD Immunocytometry systems). A minimum of 250000 events were acquired per sample. FACS Analysis was performed using FlowJo software (Tree Star). For analysis, single cells were positively gated based on their forward scatter height vs. forward scatter area and side scatter height vs. side scatter area profiles, lymphocytes were then positively gated based on their forward and side scatter profile (live lymphocyte gate), residual dead cells were excluded with negative gating on v-amine live/dead dye, and all irrelevant non-B cells were excluded with negative gating on dump markers Thy1, F4/80, CD11c, Gr-1, TER-119, and NK-1.1.

Experiment [7] has as its system mAb cell lines P3X63/Ag8, F39F, 7B2, 13H11. To be noted: flow cytometry, all Ig+ cell lines tested. The method, then: as §2
For experiment [8], the system named is mAb 7B2 (anti-gp41 immunodominant region). To be noted: SPR, mAb 7B2 captured. On the procedure:
(§7) Surface Plasmon Resonance (SPR) measurements of tetramer binding to peptide epitopes. Tetramer binding assays were carried out on a BIAcore 3000 (BIAcore/GE Healthcare, Piscataway, N.J.) instrument using mAbs against each specific B cell epitope.
(§8) Each mAb (about 1000 RU) was first captured on anti-human Fc mAb (Pierce, Rockford, Ill.) immobilized on a CM5 sensor chip. Approximately 3000 RU of anti-human Fc mAb was covalently coupled to each flow cell of the sensor chip as described before (Alam et al, Journal of Immunology 178:4424-4435 (2007)). Each B cell tetramer was injected over its epitope specific mAb or a control surface immobilized with irrelevant mAb. For each tetramer binding curve, non-specific binding signals obtained from the control surface were subtracted. The binding assay was monitored at 25° C. and using PBS, pH 7.4, as the running buffer. The BIAevaluation 3.0 software (BIAcore/GE Healthcare, Piscataway, N.J.) was used for SPR binding data analyses.

The test system of the next experiment is mAb 7B2 on beads. To be noted: flow cytometry. The method, then: as §1, §2
For another experiment, the system named is 7B2 cells. The note with it: flow cytometry. On the procedure:
as §2

A further experiment has as its system mAb F39F (anti-gp120 V3). The note with it: SPR, mAb F39F captured, 25° C., PBS pH 7.4. The method, then: as §7, §8
For orientation: In SPR one partner is held on a chip, and binding of the other changes the refractive index at the surface.

Experiment [9] deals with mAb 7B9 (anti-gp120 V3 62.19). The note with it: SPR, mAb 7B9 captured.
Experiment [10] has as its system V3 loop mAbs 7B9 and F39F on beads. To be noted: flow cytometry. The method, then: as §1, §2
The subject of experiment [11] is total naïve splenic C57BL/6 B cells. The note with it: C57BL/6, APC-labeled tetramer. On the procedure:
as §3, §4, §5, §6

Experiment [12] relates to mixture of F39F cells and P3X63/Ag8 cells. The note with it: 6% F39F cells, 94% P3X63/Ag8 cells; sequential or simultaneous staining. On the procedure:
as §2

A further experiment relates to F39F cells. The note with it: flow cytometry. On the procedure:
as §2

Experiment [13] is described as follows: gp41 HR2 peptide immunization, serum anti-2F5 epitope Ab ELISA, BALB/c. The format is in vivo, BALB/c mice. The note with it: peptide in Emulsigen + oCpG, i.p., ELISA 10 days after each immunization. On the procedure: (§9) Peptide immunogen formulation, dose, route of immunization, and immunization schedule. The peptide immunogen used was a gp41 heptad repeat-2 (HR2) DP 1 78Q16L peptide ([…]), synthesized and purified from Primm, and verified to be >95% purified as determined by mass spectrometry. Lyophilized peptide immunogens stored at 4° C. (Primm Biotechnology) were reconstituted by dissolving in DMSO at 8 mg/ml and bringing up to 1 mg/ml in saline. Adjuvanting was done by dissolving mouse oCpG, (5′-[…]-3′; Midland Certified Reagent Company) in saline at 1 mg/ml and first mixing with Oil/water Emulsigen (MVP laboratories) in saline, then with peptide, such as to create a final mixture of 50 μg/ml oCpG, 125 μg/ml peptide, 10% Emulsigen (for i.p. immunizations) and 200 μg/ml oCpG, 500 μg/ml peptide, 10% Emulsigen (for i.m. immunizations). Immunization primes and boosts were all done at a single site intraperitoneally using a volume of 200 μl of the above formulation, such that mice in all instances were injected with 25 μg peptide and 10 μg oCpG. Mice were primed for 10 days and then boosted four times, every 14 days.
(§10) Cell isolation, serum collection, and PBMC isolations.
(§11) ELISA assays. […] Optical density was read at 405 nm with a BioRad 680 microplate reader. […]

The nature of experiment [14]: gp41 HR2 peptide immunization, serum anti-2F5 epitope Ab ELISA, C57BL/6. The class given is in vivo, C57BL/6 mice. To be noted: C57BL/6, peptide in Emulsigen + oCpG, i.p., ELISA 10 days after each immunization. On the procedure: as §9, §10, §11
For orientation: An ELISA detects its analyte on a solid surface through an enzyme-linked reagent.

Ends that are not written are not given here. * marks the point of attachment. Biotin = O=C1N[C@H]2[C@H](CS[C@H]2CCCCC(=O)*)N1

Chain of gp41 MPER tetramer (P22629 37-163 limits assumed): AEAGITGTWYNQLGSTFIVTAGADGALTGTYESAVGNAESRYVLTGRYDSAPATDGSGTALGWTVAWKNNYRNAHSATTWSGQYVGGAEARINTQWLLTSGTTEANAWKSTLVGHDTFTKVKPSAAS

In the experiment with gp41 MPER tetramer [1], 13H11 (antibody) registered a koff of 0.0081 s⁻¹ and a kon of 206000 M⁻¹ s⁻¹. Further, the percent of cells of the mixture stained with the tetramer with gp41 MPER tetramer [2] was 1.47%. Further, the percent of cells of the mixture stained with the tetramer with gp41 MPER tetramer [3] worked out at 15.1%. In addition, in the experiment with gp41 MPER tetramer [4], the percent of cells of the mixture stained with the tetramer over background was found to be 0.12%.

Consider “Biotin-GGGGGDWEYSVWLSN [dsDNA mimic tetramer]”, for which, in experiment [5], the “binding to any antibody on beads” value is recorded as “did not bind”. Moreover, the “binding to total naïve splenic B cells” value in experiment [6] is listed as “no significant binding above background”. The “binding to mAb cell lines” value in experiment [7] is “no cell line bound”.

Take “Biotin-GGGKQLQARVLAVERYLKDQQLLGIWGCSGKLICTTAV (cysteine pairing not given here) [gp41 ID tetramer]”: in [8], the koff is given as 1.1 s^−1 × 10^−3 and the kon was found to be 1.2 M^−1s^−1 × 10^3. For the same substance, in the experiment with mAb 7B2 on beads, the “binding to antibody-coated beads” value was “bound only to mAb 7B2”. For the same substance, the “binding to mAb cell line” value in the experiment with 7B2 cells was “bound”.

Turning to “Biotin-GGGTRPNNNTRKSIHIGPGRAFYATE [62.19 V3 tetramer]”, the values for the koff (in the experiment with mAb F39F (anti-gp120 V3); in experiment [9]) were 0.60 s^−1 × 10^−3 and 0.19 s^−1 × 10^−3, respectively. Also, the kon is reported as 60.5 M^−1s^−1 × 10^3 in the experiment on mAb F39F (anti-gp120 V3) and 35.6 M^−1s^−1 × 10^3 in experiment [9]. Also, the “binding to antibody-coated beads” value in [10] is “bound to both V3 loop mAbs 7B9 and F39F”. In addition, the “binding to total naïve splenic B cells” value in [6] and in experiment [11] was “minimal binding” throughout. Besides, the “effect of PE labeled anti-IgG heavy chain reagent on tetramer binding” value in experiment [12] is recorded as “does not inhibit”. The “binding to mAb cell line” value with F39F cells is given as “bound”.

Regarding “Biotin-GGGTRPNNNTRKSIHIGPGRAFYTTGEIIGDIRQAH [B.con03 V3 tetramer]”, in the experiment on mAb F39F (anti-gp120 V3), the koff is reported as 0.65 s^−1 × 10^−3 and the kon was determined as 83.4 M^−1s^−1 × 10^3. For the same substance, the “binding to antibody-coated beads” value in experiment [10] is “bound to both V3 loop mAbs 7B9 and F39F”. Further, the “binding to mAb cell line” value with F39F cells was “bound”.

On to enfuvirtide, for which, in experiment [13], the “anti-2F5 serum Ab response” value was “robust anti-2F5 serum Ab responses”. The “anti-2F5 serum Ab titers” value in [14] is recorded as “no appreciable anti-2F5 serum Ab titers”.

Source of the values: patent US20090317419A1, “Tetramers” (Duke University, priority 2008, published 2009).
